Experimental data: patent US4025629A, “P-(trifluoromethylquinolylamino)benzamides, pharmaceutical dosage forms and method of treatment” (The Upjohn Company, priority 1975, dated 1977)
Several values for one entry are separate records, joined by “and”; a condition that tells them apart may be missing. Identical values can stand only once.

Columns and labels:
[1] = system: Plasmodium berghei; conditions: mice; 160 mg./kg. subcutaneously; cited from earlier work
[2] = system: Schistosoma Mansoni cercariae; conditions: 160 mg./kg. subcutaneously; cited from earlier work
[3] = system: unanesthetized normotensive rats; experiment: Hypotensive effect (mean arterial pressure) in unanesthetized normotensive rats, oral aqueous suspension; assay type: in vivo, rat; conditions: for B.P. Change: individual rats
Experimental: An aqueous suspension for oral administration is prepared by suspending the essential active ingredient at a concentration of 10 mg./ml. in an aqueous solution containing 1% of sodium carboxymethylcellulose. This suspension is used for bringing about hypotensive effects in unanesthetized normotensive rats. The rats are prepared for measuring blood pressure directly from the aorta through a chronic indwelling cannula (Weeks and Jones, Proc. Soc. Exptl. Biol. and Med., 104, 646, 1960). Mean arterial pressure is measured prior to and at four hours and 24 hours after drug administration at a specified dose.

[4] = system: male mice (motor activity); experiment: Inhibition of motor activity of mice on drug-containing diet (actophotometers); assay type: in vivo, mouse; conditions: after 20 hours on diet
Experimental: The essential active ingredient is suspended in a normal mouse diet to provide a concentration in the diet of from about 0.03 to about 0.3%. Groups of male mice, 18-22 gm. each, are fed a stock diet containing various concentrations of the essential active ingredient. Motor activity is determined after 20 hours on the diet, four groups of two mice from each test group being placed in actophotometers. After a ten minute acclimation period, motor activity is recorded for a ten minute period with the following results: […]

Question: For `CN1CCN(C(=O)c2ccc(Nc3ccnc4cc(Cl)ccc34)cc2)CC1` [1-[p-[(7-chloro-4-quinolyl)amino]-N,N-(3-methyl-3-azapentamethylene]benzamide], which “activity against Plasmodium berghei” value [1] is on record?
Answer: The value was “Slight activity”.

Question: And the “activity against Schistosoma Mansoni cercariae in mice” value [2]?
Answer: The value was “Slight activity”.

Question: For `CN1CCN(C(=O)c2ccc(Nc3ccnc4cc(C(F)(F)F)ccc34)cc2)CC1` [essential active ingredient, p-[(7-trifluoromethyl-4-quinolyl)amino]-N,N-(3-methyl-3-azapentamethylene)benzamide], which “B.P. Change” value ([3]; oral 1 mg./kg., 4 hr.) is on record?
Answer: Its value is 0 mm Hg.

Question: And the “B.P. Change” value ([3]; oral 1 mg./kg., 24 hr.)?
Answer: Its value is -10 mm Hg and 0 mm Hg.

Question: And the “B.P. Change” value ([3]; oral 3.12 mg./kg., 4 hr.)?
Answer: Its value is -18 mm Hg and +12 mm Hg and 0 mm Hg.

Question: What about the “B.P. Change” value ([3]; oral 3.12 mg./kg., 24 hr.) of the same compound?
Answer: Its value is -18 mm Hg and -10 mm Hg.

Question: What about the “B.P. Change, avg” value ([3]; oral 6.35 mg./kg., 4 hr., average of 4 rats (initial avg 138)) of the same compound?
Answer: The value was -13 mm Hg.

Question: What about the “B.P. Change” value ([3]; oral 6.35 mg./kg., 4 hr.) of the same compound?
Answer: Its value is -14 mm Hg and -16 mm Hg.

Question: What about the “B.P. Change, avg” value ([3]; oral 6.35 mg./kg., 24 hr., average of 4 rats (initial avg 138)) of the same compound?
Answer: The value was -12 mm Hg.

Question: What about the “B.P. Change” value ([3]; oral 6.35 mg./kg., 24 hr.) of the same compound?
Answer: Its value is -10 mm Hg and -14 mm Hg.

Question: What about the “B.P. Change, avg” value ([3]; oral 12.5 mg./kg., 24 hr., average of 4 rats (initial avg 132)) of the same compound?
Answer: Its value is -17 mm Hg.

Question: And the “B.P. Change” value ([3]; oral 12.5 mg./kg., 24 hr.)?
Answer: Its value is -24 mm Hg and -12 mm Hg.

Question: And the “B.P. Change, avg” value ([3]; oral 25 mg./kg., 4 hr., average of 4 rats (initial avg 138))?
Answer: Its value is -18 mm Hg.

Question: And the “B.P. Change” value ([3]; oral 25 mg./kg., 4 hr.)?
Answer: Its value is -22 mm Hg and -30 mm Hg and -12 mm Hg.

Question: And the “B.P. Change, avg” value ([3]; oral 25 mg./kg., 24 hr., average of 4 rats (initial avg 138))?
Answer: The value was -23 mm Hg.

Question: What about the “B.P. Change” value ([3]; oral 25 mg./kg., 24 hr.) of the same compound?
Answer: The value was -22 mm Hg and -28 mm Hg and -20 mm Hg.

Question: What about the “B.P. Change, avg” value ([3]; oral 50 mg./kg., 4 hr., average of 4 rats (initial avg 133)) of the same compound?
Answer: Its value is -13 mm Hg.

Question: What about the “B.P. Change” value ([3]; oral 50 mg./kg., 4 hr.) of the same compound?
Answer: The value was -16 mm Hg and -22 mm Hg.

Question: And the “B.P. Change, avg” value ([3]; oral 50 mg./kg., 24 hr., average of 4 rats (initial avg 133))?
Answer: The value was -17 mm Hg.

Question: And the “B.P. Change” value ([3]; oral 50 mg./kg., 24 hr.)?
Answer: The value was -22 mm Hg and -28 mm Hg and 0 mm Hg.

Question: What about the “% Inhibition Motor Activity” value ([4]; 0.1% conc. in diet, 24 hour drug intake 95 mg./kg.) of the same compound?
Answer: Its value is 96%.

Question: What about the “% Inhibition Motor Activity” value ([4]; 0.3% conc. in diet (third line), 24 hour drug intake 47 mg./kg.) of the same compound?
Answer: The value was 68%.

Question: And the “% Inhibition Motor Activity” value ([4]; 0.3% conc. in diet, 24 hour drug intake 94 mg./kg.)?
Answer: Its value is 92%.

Question: With `CN1CCN(C(=O)c2cccc(Nc3ccnc4cc(Cl)ccc34)c2)CC1` [its meta isomer] as the compound, how does the “activity against Plasmodium berghei” value [1] read?
Answer: The value was “Slight activity”.

Question: What about the “activity against Schistosoma Mansoni cercariae in mice” value [2] of the same compound?
Answer: Its value is “Slight activity”.
